The results in this text go back to US12630594B2, “Allergy antigen and epitope for same” (HOYU CO., LTD., priority 2017, dated 2026).

Assay [1] has as its system IgE antibody present in the serum of a fish-allergic patient. As to the kind of experiment: Epitope mapping (1): peptide array of overlapping 15-amino-acid peptides. Type of assay: binding, human. The following applies: average of 5 patients / average of 4 non-fish-allergic subjects at least 1.5, Mann-Whitney U test. As to the method: Epitope mapping was carried out using a library of overlapping peptides (length: 15 amino acids) corresponding to the amino acid sequences identified as allergy components of fish and the amino acid sequences of known fish allergy antigens aldolase, β-enolase, and glyceraldehyde-3-phosphate dehydrogenase (Non Patent Literature 2-4). Specifically, the library of overlapping peptides was prepared on the basis of the amino acid sequences of SEQ ID NO: 2 for alpha-actinin-3, SEQ ID NO: 5 for EEF1A2 binding protein-like, SEQ ID NO: 10 for alpha-1,4-glucan phosphorylase, SEQ ID NO: 19 for elongation factor 2, SEQ ID NO: 26 for heat shock cognate 70 kDa protein, SEQ ID NO: 33 for serotransferrin, SEQ ID NO: 43 for myosin binding protein H-like, SEQ ID NO: 56 for desmin (fragment), SEQ ID NO: 61 for capping protein (actin filament) muscle Z-line beta, SEQ ID NO: 70 for myosin heavy chain, fast skeletal muscle-like, SEQ ID NO: 110 for glycogen phosphorylase, muscle form-like, SEQ ID NO: 121 for myosin-binding protein C, fast-type-like, SEQ ID NO: 138 for ATP synthase subunit beta, mitochondrial, SEQ ID NO: 144 for L-lactate dehydrogenase A chain-like, SEQ ID NO: 445 for aldolase, SEQ ID NO: 446 for β-enolase, and SEQ ID NO: 447 for glyceraldehyde-3-phosphate dehydrogenase.
The peptides to be synthesized were shifted by 10 amino acids.
For preparation of peptide arrays, the Intavis CelluSpots™ technique was used. Specifically, the peptide arrays were prepared by the following procedure: (1) synthesizing peptides of interest on amino-modified cellulose disks using an automated chemical synthesis apparatus (Intavis MultiPep RS), (2) dissolving the amino-modified cellulose disks to obtain a cellulose-bound peptide solution, and (3) spotting the cellulose-bound peptides onto coated glass slides. The details of each procedure are as described below.
The presence or absence of binding, to each peptide fragment, of an IgE antibody present in the serum of a fish-allergic patient was measured through antigen-antibody reaction using the peptide arrays. The measurement was carried out according to the following procedure. • (1) The peptides were shaken at room temperature for 1 hour in PBST. • (2) The peptide arrays were shaken at overnight at room temperature in 5% serum/PBST. • (3) The peptide arrays were washed with a PBST solution (a PBS buffer containing 0.1% Tween 20 nonionic surfactant) for 5 minutes (×3). • (4) Anti-human IgE antibody-HRP(1:5,000, PBST) was added thereto, and the peptide arrays were shaken at room temperature for 1 hour. • (5) The peptide arrays were washed with a PBST solution for 5 minutes (×3). • (6) Pierce ECL Plus Western Blotting Substrate (produced by Thermo Fisher Scientific) was added thereto, and the peptide arrays were shaken at room temperature for 5 minutes. • (7) The chemiluminescence of the peptides treated as described above in (1) to • (6) was measured using Amersham Imager 600.
Chemiluminescence intensity in images obtained by the measurement described above in (7) was converted into a numeric value using ImageQuant TL (GE Healthcare). The average value of numeric values determined from images obtained from results about the serum of 5 patients was divided by the average value of numeric values determined from images obtained from results about the serum of 4 non-fish-allergic subjects. It was determined that a peptide having a calculated value (average value of the patient group/average value of the non-fish-allergic subject group) of at least 1.5 and a significant difference of […] in the Mann-Whitney U test was a peptide bound to an IgE antibody in a patient-specific manner.

The test system of assay [2] is IgE antibodies from patients. As to the kind of experiment: Epitope mapping (2): overlapping 10-amino-acid peptide fragments shifted by one amino acid. Type of assay: binding, human. The following applies: positions numbered within the 15-amino-acid epitope; serum of 5 patients. An excerpt:
On the basis of the sequences (SEQ ID NOs: 150-154 for alpha-actinin-3, SEQ ID NO: 155 for EEF1A2 binding protein-like, SEQ ID NOs: 156 and 157 for alpha-1,4-glucan phosphorylase, SEQ ID NOs: 158 and 159 for elongation factor 2, SEQ ID NOs: 160-162 for heat shock cognate 70 kDa protein, SEQ ID NOs: 163-167 for serotransferrin, SEQ ID NOs: 168-171 for myosin binding protein H-like, SEQ ID NOs: 172-174 for desmin (fragment), SEQ ID NOs: 175-178 for capping protein (actin filament) muscle Z-line beta, SEQ ID NOs: 179-185 for myosin heavy chain, fast skeletal muscle-like, SEQ ID NO: 186 for glycogen phosphorylase, muscle form-like, SEQ ID NOs: 187-196 for myosin-binding protein C, fast-type-like, SEQ ID NO: 197 for ATP synthase subunit beta, mitochondrial, SEQ ID NO: 198 for L-lactate dehydrogenase A chain-like, SEQ ID NO: 199 for aldolase, SEQ ID NOs: 200-202 for β-enolase, and SEQ ID NOs: 203 and 204 for glyceraldehyde-3-phosphate dehydrogenase) of the peptides bound to an IgE antibody in serum in a patient-specific manner as described above in (A), a library of overlapping peptide fragments (length: 10 amino acids) was prepared using the sequences of the peptides and sequences in which sequences were added so as to flank each peptide in the amino acid sequences of allergen components (SEQ ID NO: 2 for alpha-actinin-3, SEQ ID NO: 5 for EEF1A2 binding protein-like, SEQ ID NO: 10 for alpha-1,4-glucan phosphorylase, SEQ ID NO: 19 for elongation factor 2, SEQ ID NO: 26 for heat shock cognate 70 kDa protein, SEQ ID NO: 33 for serotransferrin, SEQ ID NO: 43 for myosin binding protein H-like, SEQ ID NO: 56 for desmin (fragment), SEQ ID NO: 61 for capping protein (actin filament) muscle Z-line beta, SEQ ID NO: 70 for myosin heavy chain, fast skeletal muscle-like, SEQ ID NO: 110 for glycogen phosphorylase, muscle form-like, SEQ ID NO: 121 for myosin-binding protein C, fast-type-like, SEQ ID NO: 138 for ATP synthase subunit beta, mitochondrial, SEQ ID NO: 144 for L-lactate dehydrogenase A chain-like, SEQ ID NO: 445 for aldolase, SEQ ID NO: 446 for β-enolase, and SEQ ID NO: 447 for glyceraldehyde-3-phosphate dehydrogenase) comprising the sequences of the peptide. Epitope mapping was carried out using the library.
The peptides to be synthesized were shifted by one amino acid.
The library was prepared by the same procedure as described above in (A), and the presence or absence of binding of an IgE antibody present in the serum of a patient and a non-fish-allergic subject to each peptide fragment was measured by the same technique as described above. Amino acids at positions where the binding activity against IgE antibodies from patients were lost or decreased in the peptides shifted by one amino acid while binding activity against IgE antibodies from non-fish-allergic subjects arose were confirmed as amino acids adversely affecting the specificity of binding to IgE antibodies.
Chemiluminescence intensity in images obtained by measurement was converted into a numeric value in the same manner as in (A) using ImageQuant TL (GE Healthcare). […]

The subject of assay [3] is IgE antibodies from patients. Put plainly: Epitope mapping (3): alanine scanning. On the set-up: species or system human. The settings on record: positions numbered within the region important for binding; no influence on IgE binding when substituted by alanine. As to the method: From the amino acid sequences identified above in (A), a library of peptide fragments in which N-terminal amino acids were substituted one by one by alanine according to a technique called alanine scanning (Non Patent Literature 5) was prepared by the same technique as described above. The presence or absence of binding of an IgE antibody present in the serum of a patient and a non-fish-allergic subject to each peptide fragment was measured by the same technique as described above. Amino acids at positions where the binding activity against IgE antibodies from patients were lost or decreased by the substitution by alanine while binding activity against IgE antibodies from non-fish-allergic subjects arose were confirmed as amino acids important for exertion of original antigenicity, or amino acids influencing exertion of original antigenicity.
Chemiluminescence intensity in images obtained by measurement was converted into a numeric value in the same manner as in (A) using ImageQuant TL (GE Healthcare). When values obtained using the sequences (SEQ ID NOs: 150-204) that were of the peptides confirmed to bind to an IgE antibody in a patient specific manner from the images obtained from results about the serum of 5 patients and served as the basis of overlapping were defined as 100%, it was determined that: a peptide having a value of less than 20% had no binding activity against IgE antibodies; a peptide having a value of 20% or more and less than 50% had binding activity, albeit poor, against IgE antibodies; a peptide having a value of 50% or more and less than 70% had binding activity, albeit somewhat poor, against IgE antibodies; a peptide having a value of 70% or more and less than 90% had equivalent binding activity against IgE antibodies; and a peptide having a value of 90% or more had almost equivalent or good binding activity against IgE antibodies and was thus a peptide had remaining binding activity against IgE antibodies.
By this analysis, common sequences important for exertion of original antigenicity were found in regions important for binding to IgE antibodies from patients, in the sequences serving as the basis of overlapping.

Turning to “6 (LDNRLYYMVAEHDSS; epitope) [compound 6]”, the “IgE antibody binding in a patient-specific manner” value (“IgE antibody binding” below) in assay [1] is reported as “bind in a patient-specific manner”. The “Positions of amino acids of region important for binding in epitope” value (from here on “Positions”) in assay [2] was 1-11. Further, the “Non-binding-influencing amino acid in region important for binding” value (shortened to “Non-binding-influencing amino acid”) in assay [3] was 8. On to “7 (GGYIQAVLDRNLCEN; epitope) [compound 7]”, for which the “IgE antibody binding” value in assay [1] is “bind in a patient-specific manner”. As for “8 (DRFKVFADYEAYIKS; epitope) [compound 8]”, the “IgE antibody binding” value in assay [1] is “bind in a patient-specific manner”. For the same substance, the “Positions” value in assay [2] is 2-9. With “9 (AIMDKKSNIRNMSVI; epitope) [compound 9]”, the “IgE antibody binding” value in assay [1] is recorded as “bind in a patient-specific manner”. On to “10 (GKSTLTDSLVSKAGI; epitope) [compound 10]”, for which the “IgE antibody binding” value in assay [1] was “bind in a patient-specific manner”. As for “37 (GGYIQAVLDRNLCEN; epitope) [compound 37]”, the “IgE antibody binding” value in assay [1] was “bind in a patient-specific manner”. In addition, in assay [3], the “Non-binding-influencing amino acid” value came to 3. With “48 (NVAKAHGGYSVFAGV; epitope) [compound 48]”, the “IgE antibody binding” value in assay [1] was “bind in a patient-specific manner”. Regarding “49 (VLAGEPVGSRSKVTV; epitope) [compound 49]”, the “IgE antibody binding” value in assay [1] is on record as “bind in a patient-specific manner”. Also, the “Positions” value in assay [2] is reported as 5-13. In addition, the “Non-binding-influencing amino acid” value in assay [3] turned out to be 6. For “50 (SYGRALQASALKAWG; epitope) [compound 50]”, the “IgE antibody binding” value in assay [1] was “bind in a patient-specific manner”.

Consider “54 (YMVYMFKYDSTHGRF; epitope) [compound 54]”, for which the “IgE antibody binding” value in assay [1] is reported as “bind in a patient-specific manner”. Also, the “Positions” value in assay [2] is listed as 1-15. Take “55 (PASYDAIKKVVKAAA; epitope) [compound 55]”: in assay [1], the “IgE antibody binding” value is “bind in a patient-specific manner”. Moreover, the “Non-binding-influencing amino acid” value in assay [3] was found to be 5.
